The source of these data is patent EP0289450A1, “15-Alkyl-19-thio-androst-4-en-3,17 diones, process for their preparation and pharmaceutical compositions containing them” (SCHERING AKTIENGESELLSCHAFT, priority 1987, dated 1988).

This assay concerns the target T1, Aromatase (Rattus norvegicus, UniProt P22443).
T1 construct: Infantile weibliche Ratten reagieren auf PMSG-Behandlung mit einheitlich erhöhter Steroidsynthese; from tissue; host or cells: living infantile female rats (whole animal); estradiol measured in serum by radioimmunoassay
T1 sequence (P22443 1-508): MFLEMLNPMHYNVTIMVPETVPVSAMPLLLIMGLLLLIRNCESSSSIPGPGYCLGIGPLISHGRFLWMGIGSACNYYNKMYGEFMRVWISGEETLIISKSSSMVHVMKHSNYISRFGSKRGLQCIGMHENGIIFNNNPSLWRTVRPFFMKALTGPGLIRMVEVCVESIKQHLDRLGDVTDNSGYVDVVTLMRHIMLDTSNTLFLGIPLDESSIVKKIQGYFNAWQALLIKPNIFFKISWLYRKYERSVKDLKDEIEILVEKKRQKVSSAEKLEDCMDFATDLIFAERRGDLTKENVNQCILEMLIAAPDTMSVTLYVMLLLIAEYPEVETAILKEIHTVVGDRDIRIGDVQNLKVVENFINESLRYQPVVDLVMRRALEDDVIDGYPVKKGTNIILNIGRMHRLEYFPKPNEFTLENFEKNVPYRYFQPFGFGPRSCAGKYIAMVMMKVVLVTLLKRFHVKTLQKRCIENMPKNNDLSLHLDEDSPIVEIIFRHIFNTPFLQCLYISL
The assay can be described thus: PMSG (Pregnant Mare's Serum Gonadotropin) test: effect on PMSG-stimulated serum estradiol after oral application. The note with it: 10 mg/Tier 2 x p.o.; for Östradiol-Konzentration in: peripheral serum of PMSG-pretreated infantile female rats, 24 h after last PMSG application, mean ± standard deviation, n = 10; for relative Wirkstärke: relative potency versus compound A (= 1,0), by regression and covariance analysis, rat. The format is in vivo, Ratte. An excerpt:
So konnte zum Beispiel im sogenannten PMSG (Pregnant Mare's Serum Gonadotropin)-Test [J. Steroid. Biochem. 7, (1976) 787] gezeigt werden, daß im Vergleich zu dem bekannten Aromatasehemmer 19-Methylthio-4-androsten-3,17-dion (A) die erfindungsgemäßen Verbindungen, wie zum Beispiel 15α-Ethyl-19-methylthio-4-androsten-3,17-dion (B), bei oraler Applikation eine stärkere Wirkung besitzen.
Infantile weibliche Ratten reagieren auf PMSG-Behandlung mit einheitlich erhöhter Steroidsynthese. Die Aromataseaktivität kann durch die Beeinflussung der PMSG-stimulierten Östrogenbildung gemessen werden.
Im PMSG-Test werden 21 Tage alte weibliche Ratten alle 2 Tage insgesamt 7 mal mit je 100 I.U. PMSG subkutan vorbehandelt. 1 Stunde vor und 8 Stunden nach der letzten PMSG-Applikation (d₁₂) erhalten die Tiere die Testsubstanz durch orale Applikation.
Die Kontrolltiere erhalten nur das Vehikel. 24 Stunden nach der letzten PMSG-Applikation werden die Tiere getötet. Im Serum wird Östradiol radioimmunologisch geprüft. Für jede Gruppe von 10 Tieren wird der Mittelwert der Östradiolkonzentration in nMol/l mit der Standardabweichung errechnet. Die Signifikanzen der Unterschiede zur Kontrollgruppe werden durch die Varianzanalyse geprüft.
Zur Ermittlung der relativen Wirkungsstärke der zu testenden Substanz im Vergleich zu der Vergleichssubstanz wird die Regressions- und Kovarianzanalyse durchgeführt. Ferner wird die prozentuale Hemmung gegen die PMSG-Kontrolle berechnet.

As to `CSC[C@]12CCC(=O)C=C1CC[C@@H]1[C@@H]2CC[C@]2(C)C(=O)CC[C@@H]12` [A, 19-Methylthio-4-androsten-3,17-dion], the “Östradiol-Konzentration in” value was 5,50 ± 0,43 nMol/l and the “relative Wirkstärke” value is reported as 1,0.

Consider `CC[C@H]1CC(=O)[C@@]2(C)CC[C@H]3[C@@H](CCC4=CC(=O)CC[C@@]43CSC)[C@H]12` [B, 15α-Ethyl-19-methylthio-4-androsten-3,17-dion], for which the “Östradiol-Konzentration in” value is listed as 4,05 ± 0,36 nMol/l and the “relative Wirkstärke” value is 3,2.
